The target of experiment [1] is T1, human NK3 receptor (Homo sapiens, UniProt P29371).
T1 construct: expressed in transfected cells; host or cells: HEK293 cells (transient expression), membranes
T1 sequence (P29371 1-465): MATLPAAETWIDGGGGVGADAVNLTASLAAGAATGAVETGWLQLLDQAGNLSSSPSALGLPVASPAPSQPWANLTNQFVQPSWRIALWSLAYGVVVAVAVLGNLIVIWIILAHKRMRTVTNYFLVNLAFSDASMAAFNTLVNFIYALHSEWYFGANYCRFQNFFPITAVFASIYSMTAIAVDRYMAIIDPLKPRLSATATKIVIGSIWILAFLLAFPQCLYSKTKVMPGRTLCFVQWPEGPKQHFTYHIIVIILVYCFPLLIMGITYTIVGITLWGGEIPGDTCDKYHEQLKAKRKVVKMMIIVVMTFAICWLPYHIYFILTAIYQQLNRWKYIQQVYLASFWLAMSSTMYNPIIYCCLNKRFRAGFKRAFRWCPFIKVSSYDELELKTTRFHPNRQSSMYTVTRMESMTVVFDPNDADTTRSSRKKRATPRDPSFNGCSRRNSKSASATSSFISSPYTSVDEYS
The experiment can be described thus: [3H]SR142801 competition binding assay. The settings on record: membrane from HEK293 cells transiently expressing recombinant human NK3 receptor; radioligand [3H]SR142801; Ki from IC50 by Cheng-Prussoff equation. The procedure:
[^3H]SR142801 Competition Binding Assay
hNK3 receptor binding experiment were performed using [^3H]SR142801 (Catalog No. TRK1035, specific activity: 74.0 Ci/mmol, Amersham, GE Healthcare UK limited, Buckinghamshire, UK) and membrane isolated from HEK293 cells transiently expressing recombinant human NK3 receptor. After thawing, the membrane homogenates were centrifuged at 48,000×g for 10 min at 4° C., the pellets were resuspended in the 50 mM Tris-HCl, 4 mM MnCl2, 1 μM phosphoramidon, 0.1% BSA binding buffer at pH 7.4 to a final assay concentration of 5 μg protein/well. […] At the end of the incubation, membranes were filtered onto unitfilter (96-well white microplate with bonded GF/C filter preincubated 1 h in 0.3% PEI+0.3% BSA, Packard BioScience, Meriden, Conn.) with a Filtermate 196 harvester (Packard BioScience) and washed 4 times with ice-cold 50 mM Tris-HCl, pH 7.4 buffer. Nonspecific binding was measured in the presence of 10 μM SB222200 for both radioligands. The radioactivity on the filter was counted (5 min) on a Packard Top-count microplate scintillation counter with quenching correction after addition of 45 μl of microscint 40 (Canberra Packard S. A., Zürich, Switzerland) and shaking for 1 h. Inhibition curves were fitted according to the Hill equation: y=100/(1+(x/IC50)^nH), where nH=slope factor using Excel-fit 4 software (Microsoft). IC50 values were derived from the inhibition curve and the affinity constant (Ki) values were calculated using the Cheng-Prussoff equation Ki=IC50/(1+[L]/KD) where [L] is the concentration of radioligand and KD is its dissociation constant at the receptor, derived from the saturation isotherm. All experiments were performed in duplicate and the mean±standard error (SEM) of the individual Ki values was calculated.

For experiment [2] the following is noted: phase II trial, cited from earlier work.

What is called Ki is the dissociation constant of the complex between target and ligand, obtained from inhibition or displacement. Consider `CC(=O)N1CCC(C(=O)N2C[C@H](CNc3ccc(C(F)(F)F)cn3)[C@@H](c3ccc(Cl)c(Cl)c3)C2)CC1` (racemic) [Example 19], for which the Ki in experiment [1] worked out at 10.3 nM.

Regarding `CN(C[C@H]1CN(C(=O)N2CCN(S(C)(=O)=O)CC2)C[C@@H]1c1ccc(Cl)c(Cl)c1)c1ccc(C(F)(F)F)cn1` (racemic) [Example 15], in experiment [1], the Ki is 78.8 nM.

As to `N#Cc1ccc(C(=O)N2C[C@H](CNc3ncc(Cl)cn3)[C@@H](c3ccc(Cl)c(Cl)c3)C2)cn1` (racemic) [Example 26], the Ki in experiment [1] is 46.3 nM.

With `CS(=O)(=O)N1CCN(C(=O)N2C[C@H](CNc3ccc(C#N)cn3)[C@@H](c3ccc(Cl)c(Cl)c3)C2)CC1` [Example 8], in experiment [1], the Ki was determined as 71.1 nM.

Take `Cc1cc(C(=O)N2C[C@H](CNc3ncc(C(F)(F)F)cn3)[C@@H](c3ccc(Cl)c(Cl)c3)C2)cnn1` (racemic) [Example 35]: the Ki in experiment [1] was determined as 9 nM.

Turning to `CN(C[C@H]1CN(C(=O)C2CCN(C(=O)C3(C)CC3)CC2)C[C@@H]1c1ccc(Cl)cc1)c1ccc(C(F)(F)F)cn1` [Example 53, [4-((3S,4S)-3-(4-Chloro-phenyl)-4-{[methyl-(5-trifluoromethyl-pyridin-2-yl)-amino]-methyl}-pyrrolidine-1-carbonyl)-piperidin-1-yl]-(1-methyl-cyclopropyl)-methanone], in experiment [1], the Ki turned out to be 85.6 nM.

For the compound `CN(C[C@H]1CN(C(=O)C2CCN(C(=O)C3(C)CC3)CC2)C[C@@H]1c1ccc(F)cc1)c1ncc(C(F)(F)F)cn1` (racemic) [Example 47], in experiment [1], the Ki is 71.6 nM.

For the compound `CS(=O)(=O)N1CCN(C(=O)N2C[C@@H](CNc3ccc(C(F)(F)F)cn3)[C@H](c3ccc(Cl)c(Cl)c3)C2)CC1` [Example 14, (3R,4R)-{3-(3,4-Dichloro-phenyl)-4-[(5-trifluoromethyl-pyridin-2-ylamino)-methyl]-pyrrolidin-1-yl}-(4-methanesulfonyl-piperazin-1-yl)-methanone], the Ki in experiment [1] was found to be 92.4 nM.

As to `C[C@@H](Nc1ccc(C(F)(F)F)cn1)[C@H]1CN(C(=O)N2CCN(S(C)(=O)=O)CC2)C[C@@H]1c1ccc(Cl)c(Cl)c1` (racemic) [Example 38, (3SR,4RS) {3-(3,4-Dichloro-phenyl)-4-[1-(RS)-(5-trifluoromethyl-pyridin-2-ylamino)-ethyl]-pyrrolidin-1-yl}-(4-methanesulfonyl-piperazin-1-yl)-methanone], the Ki in experiment [1] stood at 22.3 nM.

On to `CN(C[C@H]1CN(C(=O)C2CCN(C(=O)C3(C)CC3)CC2)C[C@@H]1c1ccc(Cl)cc1)c1ccc(C#N)cn1` [Example 51, 6-({(3S,4S)-4-(4-Chloro-phenyl)-1-[1-(1-methyl-cyclopropanecarbonyl)-piperidine-4-carbonyl]-pyrrolidin-3-ylmethyl}-methyl-amino)-nicotinonitrile], for which the Ki in experiment [1] is 69.9 nM.

As to `CS(=O)(=O)N1CCN(C(=O)N2CC(CNc3ccc(C(F)(F)F)cn3)C(c3ccc(Cl)c(Cl)c3)C2)CC1` (racemic) [Example 12, (3SR,4RS)-{3-(3,4-Dichloro-phenyl)-4-[(5-trifluoromethyl-pyridin-2-ylamino)-methyl]-pyrrolidin-1-yl}-(4-methanesulfonyl-piperazin-1-yl)-methanone], the Ki in experiment [1] stood at 20 nM.

For the compound `CS(=O)(=O)N1CCN(C(=O)N2C[C@H](CSc3ccc(C(F)(F)F)cn3)[C@@H](c3ccc(Cl)c(Cl)c3)C2)CC1` (racemic) [Example 5, (3SR,4RS)-[3-(3,4-Dichloro-phenyl)-4-(5-trifluoromethyl-pyridin-2-ylsulfanylmethyl)-pyrrolidin-1-yl]-(4-methanesulfonyl-piperazin-1-yl)-methanone], the Ki in experiment [1] is 2.4 nM.

Take `Cc1cc(C(=O)N2C[C@H](CNc3ncc(Cl)cn3)[C@@H](c3ccc(Cl)c(Cl)c3)C2)cnn1` (racemic) [Example 27]: the Ki in experiment [1] worked out at 24.7 nM.

Take `Cc1cc(C(=O)N2C[C@H](CNc3ccc(C(F)(F)F)cn3)[C@@H](c3ccc(Cl)c(Cl)c3)C2)cnn1` (racemic) [Example 20]: in experiment [1], the Ki was 11 nM.

In the case of `CC1(C(=O)N2CCC(C(=O)N3CC(CNc4ccc(Cl)cn4)C(c4ccc(Cl)cc4)C3)CC2)CC1` (racemic) [Example 41, (3SR,4RS) {3-(4-Chloro-phenyl)-4-[(5-chloro-pyridin-2-ylamino)-methyl]-pyrrolidin-1-yl}-[1-(1-methyl-cyclopropanecarbonyl)-piperidin-4-yl]-methanone], the Ki in experiment [1] amounted to 86.3 nM.

For the compound `CC(=O)N(C)C1(c2ccccc2)CCN(CCC[C@]2(c3ccc(Cl)c(Cl)c3)CCCN(C(=O)c3ccccc3)C2)CC1` [SR 142,801, Osanetant], the “activity on positive symptoms of schizophrenia” value in experiment [2] (altered behavior, delusion, hallucinations, extreme emotions, excited motor activity, incoherent speech) was “active”. Also, the “activity in the treatment of negative symptoms of schizophrenia” value in experiment [2] (depression, anhedonia, social isolation, memory and attention deficits) is “inactive”.

For `CC1(C(=O)N2CCC(C(=O)N3C[C@H](CNc4ncc(Cl)cn4)[C@@H](c4ccc(Cl)c(Cl)c4)C3)CC2)CC1` (racemic) [Example 24], the Ki in experiment [1] is 16.5 nM.

On to `CC1(C(=O)N2CCC(C(=O)N3C[C@H](CNc4ncc(C(F)(F)F)cn4)[C@@H](c4ccc(Cl)c(Cl)c4)C3)CC2)CC1` [Example 57, {(3S,4S)-3-(3,4-Dichloro-phenyl)-4-[(5-trifluoromethyl-pyrimidin-2-ylamino)-methyl]-pyrrolidin-1-yl}-[1-(1-methyl-cyclopropanecarbonyl)-piperidin-4-yl]-methanone], for which the Ki in experiment [1] was determined as 1.8 nM.

Turning to `CC(=O)N1CCC(C(=O)N2C[C@H](CNc3ncc(Cl)cn3)[C@@H](c3ccc(Cl)c(Cl)c3)C2)CC1` (racemic) [Example 25], in experiment [1], the inhibition constant (Ki) amounted to 19.5 nM.

The values above are taken from patent publication US8318759B2, “Pyrrolidine derivatives as NK3 receptor antagonists” (Hoffmann-La Roche Inc., priority 2009, dated 2012).
